# According to patent publication US9012398B2, “Acylated exendin-4 compounds” (priority 2006, dated 2015):
# Starred links: 1 amine or outer side, 2 acyl side, 3 side chain; linkers in the order of their positions; H or OH if unused. Residues, ends and D or L forms follow the SMILES beside them. Groups on a side chain read outwards from the residue. *: point of attachment. γGlu = O=C(O)[C@H](CCC(=O)[*:2])N[*:1]; Stearoyl = CCCCCCCCCCCCCCCCCC(=O)*; Palmitoyl = CCCCCCCCCCCCCCCC(=O)*; AEEA = NCCOCCOCC(=O)O
# Key:
# [1] = Chemical stability of solubilised peptide at 40° C., impurities monitored by RP-HPLC/UPLC; format: physicochemical; conditions: for Formation rate of peptide related impurities at 40° C.: 2.5 weeks, 100 nmol peptide in 1 ml phosphate buffered saline, pH 7.4
# Experimental: The chemical stability of solubilised acylated exendin-4 compounds were monitored by RP-HPLC following incubation at […]
# The formation of exendin analogue related impurities relative to control samples stored in the freezer were monitored with a Waters UPLC system. Samples were applied to Acquity UPLC BEH C18 (1.7 μm) 2.1×50 mm column and eluted at a flow rate of 0.9 ml/min with linear stepwise gradients of acetonitrile in 0.1% trifluoroacetic acid (from 5 to 100% acetonitrile for 10 min, and from 100 to 5% acetonitrile for 1 min). The column was heated to 30 C and detection was performed at 214 nm.
# human GLP-1 receptor = target: T1, human GLP-1 receptor (Homo sapiens, UniProt P43220); test: Functional receptor assay: cAMP formation in plasma membranes of BHK cells expressing the cloned human GLP-1 receptor (GLP1cAMPma); format: biochemical; conditions: cAMP, membranes with human GLP-1 receptor, mean value; read-out: GLP1cAMPma (3693) [EC50 (nM)] Mean Value
# T1 construct: expressed in transfected cells; host or cells: BHK cells, clone BHK-467-12A; plasma membrane preparation
# T1 sequence (P43220 24-463): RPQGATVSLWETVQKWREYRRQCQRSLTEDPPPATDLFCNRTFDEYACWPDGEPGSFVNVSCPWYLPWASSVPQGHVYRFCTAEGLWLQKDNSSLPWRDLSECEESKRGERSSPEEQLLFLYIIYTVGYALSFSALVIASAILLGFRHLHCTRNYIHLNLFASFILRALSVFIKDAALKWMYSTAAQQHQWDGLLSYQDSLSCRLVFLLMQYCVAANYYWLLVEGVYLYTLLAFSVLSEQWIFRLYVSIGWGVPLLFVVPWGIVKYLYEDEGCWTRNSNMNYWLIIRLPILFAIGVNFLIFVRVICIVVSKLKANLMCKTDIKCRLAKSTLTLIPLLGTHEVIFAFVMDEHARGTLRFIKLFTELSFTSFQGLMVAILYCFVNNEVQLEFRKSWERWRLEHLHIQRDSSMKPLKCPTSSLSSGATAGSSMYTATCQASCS
# Experimental: The term “insulinotropic agent” as used herein means a compound which is an agonist of the human GLP-1 receptor, i.e. a compound which stimulates the formation of cAMP in a suitable medium containing the human GLP-1 receptor (one such medium disclosed below). The potency of an insulinotropic agent is determined by calculating the EC50 value from the dose-response curve as described below.
# The cells were washed twice in phosphate buffered saline and harvested with Versene. Plasma membranes were prepared from the cells by homogenisation with an Ultraturrax in buffer 1 (20 mM HEPES-Na, 10 mM EDTA, pH 7.4). The homogenate was centrifuged at 48,000×g for 15 min at 4° C. The pellet was suspended by homogenization in buffer 2 (20 mM HEPES-Na, 0.1 mM EDTA, pH 7.4), then centrifuged at 48,000×g for 15 min at 4° C. The washing procedure was repeated one more time. The final pellet was suspended in buffer 2 and used immediately for assays or stored at −80° C.
# The functional receptor assay was carried out by measuring cyclic AMP (cAMP) as a response to stimulation by the insulinotropic agent. cAMP formed was quantified by the AlphaScreen™ cAMP Kit (Perkin Elmer Life Sciences). Incubations were carried out in half-area 96-well microtiter plates in a total volume of 50 μL buffer 3 (50 mM Tris-HCl, 5 mM HEPES, 10 mM MgCl2, pH 7.4) and with the following additions: 1 mM ATP, 1 μM GTP, 0.5 mM 3-isobutyl-1-methylxanthine (IBMX), 0.01% Tween-20, 0.1% BSA, 6 μg membrane preparation, 15 μg/mL acceptor beads, 20 μg/mL donor beads preincubated with 6 nM biotinyl-cAMP. […] GTP was freshly prepared for each experiment. The plate was incubated in the dark with slow agitation for three hours at room temperature followed by counting in the Fusion™ instrument (Perkin Elmer Life Sciences). Concentration-response curves were plotted for the individual compounds and EC50 values estimated using a four-parameter logistic model with Prism v. 4.0 (GraphPad, Carlsbad, Calif.).
Compound,Formation rate of peptide related impurities at 40° C. [1] [%/week],EC50 (human GLP-1 receptor) [nM],"formation rate of peptide related impurities ([1]; 100 nmol/ml in 50 mM phosphate buffer with 0.05% Tween 80, pH 8.0)"
"CCCCCCCCCCCCCCCCCC(=O)NCCOCCOCC(=O)NCCOCCOCC(=O)NCCOCCOCC(=O)NCCCC[C@H](NC(=O)[C@H](CCC(N)=O)NC(=O)[C@H](CCCNC(=N)N)NC(=O)[C@H](CO)NC(=O)[C@H](CC(C)C)NC(=O)[C@H](CC(=O)O)NC(=O)[C@H](CO)NC(=O)[C@@H](NC(=O)[C@H](Cc1ccccc1)NC(=O)[C@@H](NC(=O)CNC(=O)[C@H](CCC(=O)O)NC(=O)CNC(=O)[C@@H](N)Cc1c[nH]cn1)[C@@H](C)O)[C@@H](C)O)C(=O)N[C@@H](CCC(=O)O)C(=O)N[C@@H](CCC(=O)O)C(=O)N[C@@H](CCC(=O)O)C(=O)N[C@@H](C)C(=O)N[C@H](C(=O)N[C@@H](CCCNC(=N)N)C(=O)N[C@@H](CC(C)C)C(=O)N[C@@H](Cc1ccccc1)C(=O)N[C@H](C(=O)N[C@@H](CCC(=O)O)C(=O)N[C@@H](Cc1c[nH]c2ccccc12)C(=O)N[C@@H](CC(C)C)C(=O)N[C@H](C(=O)N[C@@H](CCCNC(=N)N)C(=O)NCC(=O)NCC(=O)N1CCC[C@H]1C(=O)N[C@@H](CO)C(=O)N[C@@H](CO)C(=O)NCC(=O)N[C@@H](C)C(=O)N1CCC[C@H]1C(=O)N1CCC[C@H]1C(=O)N1CCC[C@H]1C(=O)N[C@@H](CO)C(N)=O)C(C)C)[C@@H](C)CC)C(C)C [Example 26, N-ε^14-(2-(2-(2-(2-(2-(2-(2-(2-(2-(Octadecanoylamino)ethoxy)ethoxy)acetylamino)ethoxy)ethoxy)acetyl-amino)ethoxy)ethoxy)acetyl)[Arg^12,Lys^14,Val^27,Arg^28]Exendin-4-(1-39)-amide] (H-HGEGTFTSDLSRQK([AEEA-AEEA-AEEA-Stearoyl])EEEAVRLFIEWLVRGGPSSGAPPPS-NH2; N-terminus assumed)",2.0,0.088,–
Exendin-4 [reference compound],–,–,40-50 % per week
"CCCCCCCCCCCCCCCCCC(=O)NCCOCCOCC(=O)NCCOCCOCC(=O)NCCOCCOCC(=O)NCCCC[C@H](NC(=O)[C@@H](NC(=O)[C@H](C)NC(=O)[C@H](CCC(=O)O)NC(=O)[C@H](CCC(=O)O)NC(=O)[C@H](CCC(=O)O)NC(=O)[C@H](CC(C)C)NC(=O)[C@H](CCC(N)=O)NC(=O)[C@H](CCCNC(=N)N)NC(=O)[C@H](CO)NC(=O)[C@H](CC(C)C)NC(=O)[C@H](CC(=O)O)NC(=O)[C@H](CO)NC(=O)[C@@H](NC(=O)[C@H](Cc1ccccc1)NC(=O)[C@@H](NC(=O)CNC(=O)[C@H](CCC(=O)O)NC(=O)CNC(=O)[C@@H](N)Cc1c[nH]cn1)[C@@H](C)O)[C@@H](C)O)C(C)C)C(=O)N[C@@H](CC(C)C)C(=O)N[C@@H](Cc1ccccc1)C(=O)N[C@H](C(=O)N[C@@H](CCC(=O)O)C(=O)N[C@@H](Cc1c[nH]c2ccccc12)C(=O)N[C@@H](CC(C)C)C(=O)N[C@@H](CCCNC(=N)N)C(=O)N[C@@H](CCC(N)=O)C(=O)NCC(=O)NCC(=O)N1CCC[C@H]1C(=O)N[C@@H](CO)C(=O)N[C@@H](CO)C(=O)NCC(=O)N[C@@H](C)C(=O)N1CCC[C@H]1C(=O)N1CCC[C@H]1C(=O)N1CCC[C@H]1C(=O)N[C@@H](CO)C(N)=O)[C@@H](C)CC [Example 14, N-ε^20-(2-(2-(2-(2-(2-(2-(2-(2-(2-(Octadecanoylamino)ethoxy)ethoxy)acetylamino)ethoxy)ethoxy)acetyl-amino)ethoxy)ethoxy)acetyl))[Arg^12,27,Gln^28,Leu^14,Lys^20 Exendin-4(1-39)amide] (H-HGEGTFTSDLSRQLEEEAVK([AEEA-AEEA-AEEA-Stearoyl])LFIEWLRQGGPSSGAPPPS-NH2; N-terminus assumed)",1.5,0.017,–
CCCCCCCCCCCCCCCC(=O)N[C@@H](CCC(=O)NCCOCCOCC(=O)NCCOCCOCC(=O)NCCCC[C@H](NC(=O)[C@H](CCC(N)=O)NC(=O)[C@H](CCCNC(=N)N)NC(=O)[C@H](CO)NC(=O)[C@H](CC(C)C)NC(=O)[C@H](CC(=O)O)NC(=O)[C@H](CO)NC(=O)[C@@H](NC(=O)[C@H](Cc1ccccc1)NC(=O)[C@@H](NC(=O)CNC(=O)[C@H](CCC(=O)O)NC(=O)CNC(=O)[C@@H](N)Cc1c[nH]cn1)[C@@H](C)O)[C@@H](C)O)C(=O)N[C@@H](CCC(=O)O)C(=O)N[C@@H](CCC(=O)O)C(=O)N[C@@H](CCC(=O)O)C(=O)N[C@@H](C)C(=O)N[C@H](C(=O)N[C@@H](CCCNC(=N)N)C(=O)N[C@@H](CC(C)C)C(=O)N[C@@H](Cc1ccccc1)C(=O)N[C@H](C(=O)N[C@@H](CCC(=O)O)C(=O)N[C@@H](Cc1c[nH]c2ccccc12)C(=O)N[C@@H](CC(C)C)C(=O)N[C@H](C(=O)N[C@@H](CCCNC(=N)N)C(=O)NCC(=O)NCC(=O)N1CCC[C@H]1C(=O)N[C@@H](CO)C(=O)N[C@@H](CO)C(=O)NCC(=O)N[C@@H](C)C(=O)N1CCC[C@H]1C(=O)N1CCC[C@H]1C(=O)N1CCC[C@H]1C(=O)N[C@@H](CO)C(N)=O)C(C)C)[C@@H](C)CC)C(C)C)C(=O)O [Example 25] (H-HGEGTFTSDLSRQK([AEEA-AEEA-γGlu-Palmitoyl])EEEAVRLFIEWLVRGGPSSGAPPPS-NH2; N-terminus assumed),3.0,0.037,–
"CCCCCCCCCCCCCCCC(=O)N[C@@H](CCC(=O)NCCOCCOCC(=O)NCCOCCOCC(=O)NCCCC[C@H](NC(=O)[C@@H](NC(=O)[C@H](C)NC(=O)[C@H](CCC(=O)O)NC(=O)[C@H](CCC(=O)O)NC(=O)[C@H](CCC(=O)O)NC(=O)[C@H](CC(C)C)NC(=O)[C@H](CCC(N)=O)NC(=O)[C@H](CCCNC(=N)N)NC(=O)[C@H](CO)NC(=O)[C@H](CC(C)C)NC(=O)[C@H](CC(=O)O)NC(=O)[C@H](CO)NC(=O)[C@@H](NC(=O)[C@H](Cc1ccccc1)NC(=O)[C@@H](NC(=O)CNC(=O)[C@H](CCC(=O)O)NC(=O)CNC(=O)[C@@H](N)Cc1c[nH]cn1)[C@@H](C)O)[C@@H](C)O)C(C)C)C(=O)N[C@@H](CC(C)C)C(=O)N[C@@H](Cc1ccccc1)C(=O)N[C@H](C(=O)N[C@@H](CCC(=O)O)C(=O)N[C@@H](Cc1c[nH]c2ccccc12)C(=O)N[C@@H](CC(C)C)C(=O)N[C@@H](CCCNC(=N)N)C(=O)N[C@@H](CCCNC(=N)N)C(=O)NCC(=O)NCC(=O)N1CCC[C@H]1C(=O)N[C@@H](CO)C(=O)N[C@@H](CO)C(=O)NCC(=O)N[C@@H](C)C(=O)N1CCC[C@H]1C(=O)N1CCC[C@H]1C(=O)N1CCC[C@H]1C(=O)N[C@@H](CO)C(N)=O)[C@@H](C)CC)C(=O)O [Example 4, N-ε^20-[2-(2-[2-(2-[2-(2-[4-hexadecanoylamino-4(S)-carboxybutyrylamino]ethoxy)ethoxy]acetylamino)ethoxy]ethoxy)acetyl] [Arg^12,27,28,Leu^14,Lys^20]Exendin-4(1-39)amide] (H-HGEGTFTSDLSRQLEEEAVK([AEEA-AEEA-γGlu-Palmitoyl])LFIEWLRRGGPSSGAPPPS-NH2; N-terminus assumed)",–,0.027,–
CCCCCCCCCCCCCCCCCC(=O)N[C@@H](CCC(=O)NCCOCCOCC(=O)NCCOCCOCC(=O)NCCCC[C@H](NC(=O)[C@H](CCC(N)=O)NC(=O)[C@H](CCCNC(=N)N)NC(=O)[C@H](CO)NC(=O)[C@H](CC(C)C)NC(=O)[C@H](CC(=O)O)NC(=O)[C@H](CO)NC(=O)[C@@H](NC(=O)[C@H](Cc1ccccc1)NC(=O)[C@@H](NC(=O)CNC(=O)[C@H](CCC(=O)O)NC(=O)CNC(=O)[C@@H](N)Cc1c[nH]cn1)[C@@H](C)O)[C@@H](C)O)C(=O)N[C@@H](CCC(=O)O)C(=O)N[C@@H](CCC(=O)O)C(=O)N[C@@H](CCC(=O)O)C(=O)N[C@@H](C)C(=O)N[C@H](C(=O)N[C@@H](CCCNC(=N)N)C(=O)N[C@@H](CC(C)C)C(=O)N[C@@H](Cc1ccccc1)C(=O)N[C@H](C(=O)N[C@@H](CCC(=O)O)C(=O)N[C@@H](Cc1c[nH]c2ccccc12)C(=O)N[C@@H](CC(C)C)C(=O)N[C@H](C(=O)N[C@@H](CCCNC(=N)N)C(=O)NCC(=O)NCC(=O)N1CCC[C@H]1C(=O)N[C@@H](CO)C(=O)N[C@@H](CO)C(=O)NCC(=O)N[C@@H](C)C(=O)N1CCC[C@H]1C(=O)N1CCC[C@H]1C(=O)N1CCC[C@H]1C(=O)N[C@@H](CO)C(N)=O)C(C)C)[C@@H](C)CC)C(C)C)C(=O)O [Example 29] (H-HGEGTFTSDLSRQK([AEEA-AEEA-γGlu-Stearoyl])EEEAVRLFIEWLVRGGPSSGAPPPS-NH2; N-terminus assumed),2.0,0.059,–
